Consider 7 molecules from patent US9156850B2, “Enediyne compounds, conjugates thereof, and uses and methods therefor” (Bristol-Myers Squibb Company, priority 2012, dated 2015).

Holding throughout (type): cell-based
In one assay the test system is HL-60 leukemia cells. Nature of the assay: Antiproliferative activity, ATP assay, HL-60. Particulars: Homo sapiens. On the procedure: (§1) The antiproliferative activity of compounds of this invention or their conjugates was assayed as follows. Human tumor cell lines were obtained from the American Type Culture Collection (ATCC), P.O. Box 1549, Manassas, Va. 20108, USA, and cultured according to instruction from the ATCC. Cells were seeded at 1.0×10^3 or 1.0×10^4 cells/well in 96-well plates for 3 h for ATP assays or ^3H thymidine assays, respectively. 1:3 serial dilutions of free (unconjugated) compounds or their conjugates were added to the wells. Plates were allowed to incubate for 24 to 72 h. The ^3H thymidine plates were pulsed with 1.0 μCi of ^3H-thymidine per well for the last 24 hours of the total incubation period, harvested, and read on a Top Count Scintillation Counter (Packard Instruments, Meriden, Conn.). ATP levels in the ATP plates were measured using the CELLTITER-GLO® Luminescent Cell Viability kit following the manufacturer's manual and read on a GLOMAX® 20/20 luminometer (both from Promega, Madison, Wis., USA). The EC50 values—the concentration at which an agent inhibits or reduces cell proliferation by 50%—were determined using PRISM™ software, version 4.0 (GraphPad Software, La Jolla, Calif., USA).
FIG. 11a is a plot of the antiproliferative activity of compound (IIa) against HL-60 leukemia cells, as measured by the ATP assay using a 72 h incubation period, compared against three reference compounds: doxorubicin (adriamycin), uncialamycin, and Compound A, which is a DNA alkylating agent having the following structure: […]

Assay [1] deals with doxorubicin-resistant ovarian cancer cell line (Adr). Put plainly: Antiproliferative activity, ATP assay, Adr. The note with it: Homo sapiens. On the procedure:
as §1
FIG. 11b is an analogous plot of antiproliferative activity against a doxorubicin-resistant ovarian cancer cell line (Adr), also using the ATP assay and a 72 h incubation period.

For the next assay, the system named is A2780 (ovarian). Put plainly: Antiproliferative activity, ATP method, A2780. The note with it: Homo sapiens. On the procedure:
as §1
(§2) The assay method was the ATP method. The cancer cell lines tested against were A2780 (ovarian), A549 (lung), CCRF-CEM (acute lymphoblastic leukemia), COLO205 (colon), DU4475 (breast), H2087 (lung, non-small cell), H661 (lung, large cell), HCT116 (colon), LNCaP (prostate), LS174T (colon), MDA MB468 (breast), MDA MB231 (breast), and SET2 (leukemia). The antiproliferative effects are reported as IC50's, i.e., the concentration of toxin that produces a 50% inhibitory effect.

A further assay deals with A549 (lung). Nature of the assay: Antiproliferative activity, ATP method, A549. The note with it: Homo sapiens.
For assay [2], the system named is CCRF-CEM (acute lymphoblastic leukemia). Nature of the assay: Antiproliferative activity, ATP method, CCRF-CEM. Particulars: Homo sapiens. On the procedure: as §1, §2
The test system of a further assay is COLO205 (colon). Put plainly: Antiproliferative activity, ATP method, COLO205. Particulars: Homo sapiens, COLO 205. On the procedure:
as §1, §2

For a further assay, the system named is DU4475 (breast). Nature of the assay: Antiproliferative activity, ATP method, DU4475. The note with it: Homo sapiens, DU-4475. The method, then: as §1, §2
In assay [3] the test system is H2087 (lung, non-small cell). Put plainly: Antiproliferative activity, ATP method, H2087. The note with it: Homo sapiens, NCI-H2087. On the procedure: as §1, §2
In another assay the test system is H661 (lung, large cell). Nature of the assay: Antiproliferative activity, ATP method, H661. The note with it: Homo sapiens, NCI-H661. On the procedure: as §1, §2
For the next assay, the system named is HCT116 (colon). Put plainly: Antiproliferative activity, ATP method, HCT116. The note with it: Homo sapiens, HCT-116. The method, then: as §1, §2
The test system of the next assay is LNCaP (prostate). Put plainly: Antiproliferative activity, ATP method, LNCaP. Particulars: Homo sapiens. On the procedure: as §1, §2
Another assay deals with LS174T (colon). Put plainly: Antiproliferative activity, ATP method, LS174T. The note with it: Homo sapiens. On the procedure:
as §1, §2

The next assay has as its system MDA MB468 (breast). Nature of the assay: Antiproliferative activity, ATP method, MDA MB468. Particulars: Homo sapiens, MDA-MB-468. The method, then: as §1, §2
The next assay concerns MDA MB231 (breast). Put plainly: Antiproliferative activity, ATP method, MDA MB231. The note with it: Homo sapiens, MDA-MB-231. On the procedure: as §1, §2
The test system of another assay is SET2 (leukemia). Nature of the assay: Antiproliferative activity, ATP method, SET2. The note with it: Homo sapiens, SET-2. On the procedure: as §1, §2
Another assay has as its system 786-O renal cancer cells. Nature of the assay: Antiproliferative activity, ATP assay, 786-O. The note with it: Homo sapiens. The method, then: as §1
The ATP assay was used, with a 72 h incubation period.

Another assay relates to H226 lung cancer cells. Nature of the assay: Antiproliferative activity, ATP assay, H226. The note with it: Homo sapiens. On the procedure: as §1
FIG. 12b is a similar antiproliferative plot, but against H226 lung cancer cells. The ATP assay was used, with a 72 h incubation period.
FIG. 13c is another plot of the antiproliferative activity of conjugates 2H5-(IVf) and 6A4-(IVf) against H226 cells, but measured using the ATP assay, with a 72 h incubation period.

Where [4] appears, read: HL-60 leukemia cells, ATP assay, 72 h incubation, read-out: EC50.
[5] abbreviates: Adr cells (doxorubicin-resistant ovarian), ATP assay, 72 h incubation, read-out: EC50.
Setting [6] is: A2790 cell line, ATP method, read-out: IC50.
Where [7] appears, read: A549 cell line, ATP method, read-out: IC50.
[8] abbreviates: CCRF-CEM cell line, ATP method, read-out: IC50.
Setting [9] is: COLO205 cell line, ATP method, read-out: IC50.
[10] abbreviates: DU4475 cell line, ATP method, read-out: IC50.
[11] abbreviates: H2087 cell line, ATP method, read-out: IC50.
Where [12] appears, read: H661 cell line, ATP method, read-out: IC50.
Where [13] appears, read: HCT116 cell line, ATP method, read-out: IC50.
The mark [14] stands for this setting: LNCaP cell line, ATP method, read-out: IC50.
[15] abbreviates: LS174T cell line, ATP method, read-out: IC50.
The mark [16] stands for this setting: MDA MB468 cell line, ATP method, read-out: IC50.
[17] abbreviates: MCD MB231 cell line, ATP method, read-out: IC50.
The mark [18] stands for this setting: SET2 cell line, ATP method, read-out: IC50.

Where two headings read alike, the source gives them in different places.

Protocol for A549 (lung): The antiproliferative activity of compounds of this invention or their conjugates was assayed as follows. […] Cells were seeded at 1.0×10^3 or 1.0×10^4 cells/well in 96-well plates for 3 h for ATP assays or ^3H thymidine assays, respectively. 1:3 serial dilutions of free (unconjugated) compounds or their conjugates were added to the wells. Plates were allowed to incubate for 24 to 72 h. The ^3H thymidine plates were pulsed with 1.0 μCi of ^3H-thymidine per well for the last 24 hours of the total incubation period, harvested, and read on a Top Count Scintillation Counter (Packard Instruments, Meriden, Conn.). […] The EC50 values—the concentration at which an agent inhibits or reduces cell proliferation by 50%—were determined using PRISM™ software, version 4.0 (GraphPad Software, La Jolla, Calif., USA).

Turning to `C[C@@H](O)[C@@]12O[C@]13c1cc(O)c4c(c1N[C@H]2C#C/C=C\C#C[C@H]3O)C(=O)c1ccc(N)cc1C4=O` [Compound (IIa), 8-aminouncialamycin], the EC50 worked out at 0.00404 nM in the assay with HL-60 leukemia cells (HL-60, 72 h); 0.0612 nM in assay [1] (72 h); 0.116 nM in the assay with 786-O renal cancer cells (786-0, 72 h); 1 nM with H226 lung cancer cells (NCI-H226, 72 h). In addition, the IC50 was 0.003 nM in the assay on A2780 (ovarian); 0.076 nM in the assay on A549 (lung) (A549); 0.014 nM in assay [2] (CCRF-CEM); 0.01 nM in the assay with COLO205 (colon); 0.002 nM with DU4475 (breast); 0.037 nM in assay [3]. Moreover, the IC50 was 0.053 nM in the assay with H661 (lung, large cell); 0.007 nM with HCT116 (colon); 0.001 nM in the assay with LNCaP (prostate) (LNCaP); 0.002 nM in the assay with LS174T (colon) (LS174T); 0.012 nM with MDA MB468 (breast); 0.085 nM in the assay on MDA MB231 (breast). The molecule also returned an IC50 with SET2 (leukemia) of 0.008 nM.
Take `C[C@@H](O)[C@@]12O[C@]13c1cc(O)c4c(c1N[C@H]2C#C/C=C\C#C[C@H]3O)C(=O)c1ccc(NCCN)cc1C4=O` [Compound (IIc)]: the EC50 in the assay with 786-O renal cancer cells (786-0, 72 h) was 1.27 nM; in the assay with H226 lung cancer cells (NCI-H226, 72 h), 0.986 nM.
As to `C[C@@H](O)[C@@]12O[C@]13c1cc(O)c4c(c1N[C@H]2C#C/C=C\C#C[C@H]3O)C(=O)c1ccc(NC(=O)c2ccc(N)cc2)cc1C4=O` [Compound (IId)], the EC50 in the assay on 786-O renal cancer cells (786-0, 72 h) came out at 0.058 nM; with H226 lung cancer cells (NCI-H226, 72 h), 0.873 nM.
On to `CNc1ccc2c(c1)C(=O)c1c(O)cc3c(c1C2=O)N[C@H]1C#C/C=C\C#C[C@@H](O)[C@@]32O[C@@]12[C@@H](C)O` [Compound (IIe), 8-methylaminouncialamycin], for which the EC50 amounted to 1.72 nM with 786-O renal cancer cells (786-0, 72 h) and 17.4 nM with H226 lung cancer cells (NCI-H226, 72 h).
On to `Nc1ccc(C(=O)Nc2ccc3[nH]c(C(=O)N4C[C@@H](CCl)c5c4cc(O)c4ccccc54)cc3c2)cc1` [Compound A], for which the results for the EC50 (in the assay on HL-60 leukemia cells (setting [4]); in [1] (setting [5])) were 0.00187 nM and 0.143 nM, respectively. For the same molecule, the IC50 in the assay on A2780 (ovarian) (setting [6]) was 0.004 nM; in the assay with A549 (lung) (setting [7]), 0.04 nM; in [2] (setting [8]), 0.019 nM; in the assay with COLO205 (colon) (setting [9]), 0.019 nM; in the assay with DU4475 (breast) (setting [10]), 0.001 nM; in assay [3] (setting [11]), 0.019 nM. Moreover, the IC50 with H661 (lung, large cell) (setting [12]) worked out at 0.02 nM; with HCT116 (colon) (setting [13]), 0.002 nM; in the assay with LNCaP (prostate) (setting [14]), 0.01 nM; in the assay with LS174T (colon) (setting [15]), 0.015 nM; in the assay with MDA MB468 (breast) (setting [16]) it was 0.009 nM; in the assay on MDA MB231 (breast) (setting [17]) it was 0.068 nM. The IC50 with SET2 (leukemia) (setting [18]) is 0.002 nM.
As for `COc1cccc2c1C(=O)c1c(O)c3c(c(O)c1C2=O)C[C@@](O)(C(=O)CO)C[C@@H]3O[C@H]1C[C@H](N)[C@H](O)[C@H](C)O1` [Doxorubicin, doxorubicin], the EC50 in the assay with HL-60 leukemia cells (setting [4]) amounted to 5.98 nM; in [1] (setting [5]), 3850 nM; with 786-O renal cancer cells (786-0, 786-O cells, ATP assay, 72 h incubation, read-out: EC50) it was 92.3 nM; in the assay on H226 lung cancer cells (NCI-H226, H226 cells, ATP assay, 72 h incubation, free compounds, read-out: EC50) it was 141 nM. Besides, the IC50 turned out to be 11.2 nM in the assay with A2780 (ovarian) (setting [6]); 138 nM in the assay with A549 (lung) (setting [7]); 19.4 nM in assay [2] (setting [8]); 19.7 nM in the assay on COLO205 (colon) (setting [9]); 2.9 nM with DU4475 (breast) (setting [10]); 54.4 nM in [3] (setting [11]). The IC50 in the assay with H661 (lung, large cell) (setting [12]) was determined as 26.6 nM; in the assay on HCT116 (colon) (setting [13]), 23.4 nM; in the assay with LNCaP (prostate) (setting [14]) it was 5.5 nM; with LS174T (colon) (setting [15]) it was 11.1 nM; in the assay with MDA MB468 (breast) (setting [16]) it was 29 nM; in the assay with MDA MB231 (breast) (setting [17]), 90.5 nM. In the assay on SET2 (leukemia) (setting [18]), the IC50 is 67.6 nM.
With `C[C@@H](O)[C@@]12O[C@]13c1cc(O)c4c(c1N[C@H]2C#C/C=C\C#C[C@H]3O)C(=O)c1ccccc1C4=O` [Uncialamycin, uncialamycin], the EC50 in the assay with HL-60 leukemia cells (HL-60, 72 h) came out at 0.012 nM; in assay [1] (72 h) it was 0.085 nM.
